Measured values: patent US20230340011A1 (Asteroid Therapeutics, priority 2022, published 2023)

Tests used:
LXRβ = LXRβ (Homo sapiens (Human), UniProt P55055); assay: In vitro assay LXRβ: PathHunter NHR CHO cells, LXRβ / Steroid Receptor Co-activator Peptide enzyme fragment complementation; type: cell-based; conditions: PathHunter NHR CHO cells, full-length human LXRβ and SRCP, chemiluminescent signal; read-out: LXRβ PPI
How it was run: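 Enzyme fragment complementation read-out: CHO cells stably expressing ProLink-tagged full-length human LXRβ plus nuclear enzyme acceptor–SRCP fusion, seeded and held overnight at 37° C. Medium with charcoal-dextran filtered serum; final vehicle 1%. Chemiluminescence measured after signal generation.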

SREBP-2 = SREBP-2 (Homo sapiens (Human), UniProt Q12772); assay: In vitro assay SREBP-2: PathHunter U2OS SREBP-2 Nuclear Translocation Cell Line, U18666A-stimulated; type: cell-based; conditions: PathHunter U2OS SREBP-2 nuclear translocation cells, U18666A 10 μM, overnight (16 hours)

LXRβ, sequence (P55055 whole entry, the tested form may be a part): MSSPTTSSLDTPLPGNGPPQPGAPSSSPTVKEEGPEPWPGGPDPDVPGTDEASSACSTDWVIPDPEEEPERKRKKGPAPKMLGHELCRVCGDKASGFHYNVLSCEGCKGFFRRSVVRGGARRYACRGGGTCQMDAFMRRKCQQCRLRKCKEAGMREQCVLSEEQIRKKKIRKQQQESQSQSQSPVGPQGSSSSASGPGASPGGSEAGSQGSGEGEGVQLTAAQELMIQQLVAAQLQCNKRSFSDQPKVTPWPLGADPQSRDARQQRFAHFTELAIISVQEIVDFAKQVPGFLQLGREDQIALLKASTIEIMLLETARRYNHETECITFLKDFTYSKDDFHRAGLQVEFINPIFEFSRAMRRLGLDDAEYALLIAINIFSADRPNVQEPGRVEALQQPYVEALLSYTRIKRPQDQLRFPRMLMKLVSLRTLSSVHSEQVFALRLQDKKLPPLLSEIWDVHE

Structure (SMILES) | EC50 (LXRβ) [nM] | IC50 (SREBP-2) [nM]
CON(C[C@@H](C)O)C(=O)CC[C@@H](C)[C@H]1CC[C@H]2[C@@H]3CC=C4C[C@@H](O)CC[C@]4(C)[C@H]3CC[C@]12C [Example 70, (R)-4-((3S,8S,9S,10R,13R,14S,17R)-3-hydroxy-10,13-dimethyl-2,3,4,7,8,9,10,11,12,13,14,15,16,17-tetradecahydro-1H-cyclopenta[a]phenanthren-17-yl)-N—((R)-2-hydroxypropyl)-N-methoxypentanamide] | 250 to 1000 | 250 to 1000
COc1cncnc1N1CCN(C(=O)CC[C@@H](C)[C@H]2CC[C@H]3[C@@H]4CC=C5C[C@@H](O)CC[C@]5(C)[C@H]4CC[C@]23C)C[C@@H]1C [Example 615, (R)-4-((3S,8S,9S,10R,13R,14S,17R)-3-hydroxy-10,13-dimethyl-2,3,4,7,8,9,10,11,12,13,14,15,16,17-tetradecahydro-1H-cyclopenta[a]phenanthren-17-yl)-1-((S)-4-(5-methoxypyrimidin-4-yl)-3-methylpiperazin-1-yl)pentan-1-one] | > 10000 | < 250
C[C@H](CCC(=O)N1CCN(c2ccncc2)[C@@H](C)C1)[C@H]1CC[C@H]2[C@@H]3CC=C4C[C@@H](O)CC[C@]4(C)[C@H]3CC[C@]12C [Example 567, (R)-4-((3S,8S,9S,10R,13R,14S,17R)-3-hydroxy-10,13-dimethyl-2,3,4,7,8,9,10,11,12,13,14,15,16,17-tetradecahydro-1H-cyclopenta[a]phenanthren-17-yl)-1-((S)-3-methyl-4-(pyridin-4-yl)piperazin-1-yl)pentan-1-one] | > 10000 | < 250
C=CCN1C[C@H]2CCN(C(=O)CC[C@@H](C)[C@H]3CC[C@H]4[C@@H]5CC=C6C[C@@H](O)CC[C@]6(C)[C@H]5CC[C@]34C)[C@H]2C1 [Example 140, (R)-1-((3aR,6aR)-5-allylhexahydropyrrolo[3,4-b]pyrrol-1(2H)-yl)-4-((3S,8S,9S,10R,13R,14S,17R)-3-hydroxy-10,13-dimethyl-2,3,4,7,8,9,10,11,12,13,14,15,16,17-tetradecahydro-1H-cyclopenta[a]phenanthren-17-yl)pentan-1-one] | > 10000 | 250 to 1000
CC(C)N1CCN(C(=O)CC[C@@H](C)[C@H]2CC[C@H]3[C@@H]4CC=C5C[C@@H](O)CC[C@]5(C)[C@H]4CC[C@]23C)CC1 [Example 316, (R)-4-((3S,8S,9S,10R,13R,14S,17R)-3-hydroxy-10,13-dimethyl-2,3,4,7,8,9,10,11,12,13,14,15,16,17-tetradecahydro-1H-cyclopenta[a]phenanthren-17-yl)-1-(4-isopropylpiperazin-1-yl) pentan-1-one] | > 10000 | < 250
CNC(=O)N1CCN(C(=O)CC[C@@H](C)[C@H]2CC[C@H]3[C@@H]4CC=C5C[C@@H](O)CC[C@]5(C)[C@H]4CC[C@]23C)CC1 [Example 337, 4-[(4R)-4-[(1R,3aS,3bS,7S,9aR,9bS,11aR)-7-hydroxy-9a,11a-dimethyl-1H,2H,3H,3aH,3bH,4H,6H,7H,8H,9H,9aH,9bH,10H,11H,11aH-cyclopenta[a]phenanthren-1-yl]pentanoyl]-N-methylpiperazine-1-carboxamide] | > 10000 | < 250
COc1ccccc1N1CCN(C(=O)CC[C@@H](C)[C@H]2CC[C@H]3[C@@H]4CC=C5C[C@@H](O)CC[C@]5(C)[C@H]4CC[C@]23C)CC1 [Example 624, (R)-4-((3S,8S,9S,10R,13R,14S,17R)-3-hydroxy-10,13-dimethyl-2,3,4,7,8,9,10,11,12,13,14,15,16,17-tetradecahydro-1H-cyclopenta[a]phenanthren-17-yl)-1-(4-(2-methoxyphenyl)piperazin-1-yl)pentan-1-one] | > 10000 | < 250
CC(O)C1CCN(C(=O)CC[C@@H](C)[C@H]2CC[C@H]3[C@@H]4CC=C5C[C@@H](O)CC[C@]5(C)[C@H]4CC[C@]23C)CC1 (stereo partly drawn) [Example 377, (4R)-4-[(1R,3aS,3bS,7S,9aR,9bS,11aR)-7-hydroxy-9a,11a-dimethyl-1H,2H,3H,3aH,3bH,4H,6H,7H,8H,9H,9aH,9bH,10H,11H,11aH-cyclopenta[a]phenanthren-1-yl]-1-[4-(1-hydroxyethyl)piperidin-1-yl]pentan-1-one] | 250 to 1000 | < 250
COc1cc(N2CCN(C(=O)CC[C@@H](C)[C@H]3CC[C@H]4[C@@H]5CC=C6C[C@@H](O)CC[C@]6(C)[C@H]5CC[C@]34C)[C@@H](C)C2)ncn1 [Example 648, (R)-4-((3S,8S,9S,10R,13R,14S,17R)-3-hydroxy-10,13-dimethyl-2,3,4,7,8,9,10,11,12,13,14,15,16,17-tetradecahydro-1H-cyclopenta[a]phenanthren-17-yl)-1-((S)-4-(6-methoxypyrimidin-4-yl)-2-methylpiperazin-1-yl)pentan-1-one] | > 10000 | < 250
CC(=O)N(C)[C@@H]1CCN(C(=O)CC[C@@H](C)[C@H]2CC[C@H]3[C@@H]4CC=C5C[C@@H](O)CC[C@]5(C)[C@H]4CC[C@]23C)C1 [Example 323, N—((R)-1-((R)-4-((3S,8S,9S,10R,13R,14S,17R)-3-hydroxy-10,13-dimethyl-2,3,4,7,8,9,10,11,12,13,14,15,16,17-tetradecahydro-1H-cyclopenta[a]phenanthren-17-yl)pentanoyl)pyrrolidin-3-yl)-N-methylacetamide] | > 10000 | 250 to 1000
C[C@H](CCC(=O)N1CCNS(=O)(=O)CC1)[C@H]1CC[C@H]2[C@@H]3CC=C4C[C@@H](O)CC[C@]4(C)[C@H]3CC[C@]12C [Example 354, 5-[(4R)-4-[(1R,3aS,3bS,7S,9aR,9bS,11aR)-7-hydroxy-9a,11a-dimethyl-1H,2H,3H,3aH,3bH,4H,6H,7H,8H,9H,9aH,9bH,10H,11H,11aH-cyclopenta[a]phenanthren-1-yl]pentanoyl]-1λ^6,2,5-thiadiazepane-1,1-dione] | > 10000 | < 250
C[C@H](CCC(=O)N1CCN(c2cnccn2)CC1)[C@H]1CC[C@H]2[C@@H]3CC=C4C[C@@H](O)CC[C@]4(C)[C@H]3CC[C@]12C [Example 304, (R)-4-((3S,8S,9S,10R,13R,14S,17R)-3-hydroxy-10,13-dimethyl-2,3,4,7,8,9,10,11,12,13,14,15,16,17-tetradecahydro-1H-cyclopenta[a]phenanthren-17-yl)-1-(4-(pyrazin-2-yl)piperazin-1-yl)pentan-1-one] | > 10000 | < 250
C[C@H](CCC(=O)N1CCC(N(C)C(=O)c2ccncc2)CC1)[C@H]1CC[C@H]2[C@@H]3CC=C4C[C@@H](O)CC[C@]4(C)[C@H]3CC[C@]12C [Example 416, N-(1-((R)-4-((3S,8S,9S,10R,13R,14S,17R)-3-hydroxy-10,13-dimethyl-2,3,4,7,8,9,10,11,12,13,14,15,16,17-tetradecahydro-1H-cyclopenta[a]phenanthren-17-yl)pentanoyl)piperidin-4-yl)-N-methylisonicotinamide] | > 10000 | < 250
COC(=O)N1CCN(C(=S)CC[C@@H](C)[C@H]2CC[C@H]3[C@@H]4CC=C5C[C@@H](O)CC[C@]5(C)[C@H]4CC[C@]23C)CC1 [Example 550, methyl4-[(4R)-4-[(1R,3aS,3bS,7S,9aR,9bS,11aR)-7-hydroxy-9a,11a-dimethyl-1H,2H,3H,3aH,3bH,4H,6H,7H,8H,9H,9aH,9bH,10H,11H,11aH-cyclopenta[a]phenanthren-1-yl]pentanethioyl]piperazine-1-carboxylate] | > 10000 | < 250
